Experimental findings from patent US20180251431A1 (VERTEX PHARMACEUTICALS INCORPORATED, priority 2016, published 2018) are described below.

Molecules are shown by their SMILES.

The test system of data set [1] is healthy human fibroblasts. Description: Reduction in C26:0 LPC in healthy human fibroblasts in vitro. Conditions: Healthy 2 Fibroblast, half maximal reduction in C26:0 LPC, each number a separate measurement. It counts as cell-based.
Data set [2] in a line: Metabolic intrinsic clearance in mouse hepatocytes. It counts as in vitro ADME, CD-1 mouse. The following applies: CD-1, cryopreserved hepatocytes in suspension, pH 7.5, 0.5 million cells/mL, incubation for 4 hours. As for the experimental part:
(§1) The metabolic intrinsic clearance (CLint) of Compound 87 was determined in human, monkey, dog, rat, and mouse hepatocytes. Cryopreserved human hepatocytes (Lot Hue50c), monkey hepatocytes (cynomolgus; Lot Cy328), dog hepatocytes (beagle, Lot Db235), rat hepatocytes (Sprague Dawley; NNH), and mouse hepatocytes (CD-1; Lot Mc522) were obtained from ThermoFisher (Paisley, UK). In separate experiments, compound 87 (1 μM) was incubated with hepatocytes from each species (0.5 million cells/mL, suspension) in Dulbecco's Modified Eagle's Medium (DMEM) supplemented with 4-(2-Hydroxyethyl)piperazine-1-ethanesulfonic acid (HEPES, 9 mM) and fructose (2.2 mM) (pH 7.5). Samples were quenched with acetonitrile and analyzed by LC-MS/MS. The mean CLint for Compound 87 in human, monkey, dog, rat, and mouse hepatocytes after incubation for 4 hours was determined to be ≤2.5, ≤2.5, 7.2, 23.6 and 10.7 μL/min/million cells. Based on these date, Compound 87 was low to moderately metabolized in hepatocytes in mouse, rat, dog, monkey, and human, and the rank order of stability at […] was approximately human>monkey>dog>mouse>rat. […] The metabolic stability of Compound 87 was not expected.

The test system of the next data set is ABCD1 KO mice. Description: Thermal pain sensitivity (Plantar test, Hargreaves apparatus) in ABCD1 KO mice. Conditions: male ABCD1 KO mice. The class given is in vivo, mouse. As for the experimental part: ABCD1 KO mice were used as a functional model of AMN. ABCD1 KO mice display a progressive loss of sensitivity to painful thermal stimulus similar to symptoms observed in AMN patients such as decreased sensitivity to touch. To determine the effect of Compound 87 on thermal sensitivity, Compound 87 was dosed PO QD either prophylactically or therapeutically to determine whether ABCD1 KO mice have different latency thresholds for the Plantar test (Hargreaves apparatus) response compared to wild-type (WT) mice. For the prophylactic study, mice were tested beginning at 10 months of age (before the loss of pain sensitivity) using doses of either 5 or 20 mg/kg. For the therapeutic study, mice were tested beginning at 18 months of age, after there was already a significant loss of pain sensitivity, using doses of either 32 or 64 mg/kg. […] The Plantar test (using a Hargreaves apparatus) was used and measured the latency to respond to a thermal stimulus using the following protocol. An individual mouse was placed into an individual compartment with a glass floor for about 10-15 minutes until they were settled. Each individual mouse was given three trials with an infrared source on each hind paw (alternated hind paws each time, and waited 5 minutes between each trial). […] When a response was observed (paw withdrawal), the key/button was released and the latency to respond was recorded (in seconds).

Another data set concerns ALD patient fibroblasts. Description: Reduction in C26:0 LPC in ALD patient fibroblasts in vitro. The class given is cell-based, human. Conditions: Patient Fibroblast (CALD 1), half maximal reduction in C26:0 LPC, each number a separate measurement. As for the experimental part:
Lysophosphatidylcholine (LPC) VLCFA were generated from straight chain VLCFA (SC-VLCFA) and were used clinically for newborn screening (Vogel et al., Mol. Genet. Metab. (2015) 114(4):599-603). In vitro efficacy studies were performed by measuring LPC VLCFA level (measured as LPC synthesis) in various cell lines, specifically in 1) human HEK cells, 2) patient derived cells, and 3) human microglia, which are disease relevant CNS cells. Compound 87's dose response relationships and IC50 values were measured in HEK cells, primary patient fibroblasts, immortalized patient lymphocytes, and a human microglial cell line. […]
Primary patient fibroblasts were obtained from Coriell Institute for Medical Research. […] The plate was sealed with a plate tape and put at −80° C. for further VLCFA extraction and VLCFA quantitation on LC-MS, as described below.
VLCFA Extraction and Quantitation on LCMS:
Treated cells were transferred to a polypropylene v-bottom plate and then centrifuged at 1690×g for 10 minutes. […] The plates were then sealed with pierceable capmats (Micronic MP53017) and stored at −20° C. until further analyzed using UPHLC/Mass Spectrometry Readout, as described above in example 2.1, which measured the integration of ^13C into lysophosphatidylcholine (LPC) indicated fatty acid elongation. […]

A short description of data set [3]: Metabolic intrinsic clearance in monkey hepatocytes. The class given is in vitro ADME, cynomolgus monkey. Conditions: cryopreserved hepatocytes in suspension, pH 7.5, 0.5 million cells/mL, incubation for 4 hours. As for the experimental part: as §1

Turning to `O=C(Nc1ccn(-c2ccnc(F)c2)n1)C1(c2ccccc2F)CC1` [Compound 87, 1-(2-fluorophenyl)-N-[1-(2-fluoro-4-pyridyl)pyrazol-3-yl]cyclopropanecarboxamide], the IC50 in data set [1] came to 6 nM; in data set [1] (Homo sapiens, Fibroblast), 9 nM; in the data set on ALD patient fibroblasts (Homo sapiens, Fibroblast), 17 nM; with ALD patient fibroblasts, 23 nM. The hepatocyte CLint at 1 μM in data set [2] is 10.7 µL/min/1e6 cells; in data set [3], at most 2.5 µL/min/1e6 cells. Moreover, in the data set with ABCD1 KO mice (5 or 20 mg/kg PO QD, dosing initiated at 10 months of age, 6 month period), the “thermal pain sensitivity (response latency, Plantar test), prophylactic treatment” value is “reduced the loss of thermal pain sensitivity”. Also, the “thermal pain sensitivity (response latency, Plantar test), therapeutic treatment” value in the data set on ABCD1 KO mice (32 or 64 mg/kg PO QD, dosing initiated at 18 months of age) is “reversed the loss of thermal pain sensitivity”.

Usually IC50 stands for the concentration that gives 50% inhibition. By hepatocyte CLint is commonly meant the rate of metabolic loss divided by the concentration.
